Results reported in patent publication US20230049231A1 (priority 2019, published 2023).

How the values were obtained:
Kv1.3 potassium channel = target: T1, Kv1.3 potassium channel (Homo sapiens, UniProt P22001); assay: Kv1.3 potassium channel blocker activity, automated whole-cell patch clamp (Patchliner); assay type: cell-based; conditions: Kv1.3 potassium channel, whole-cell patch clamp
T1 construct: expressed in transfected cells
Procedure, shortened: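 IC50 came from Hill-equation fits of peak and AUC currents from the final pulse at each concentration, normalized to compound-free control. Compounds applied consecutively at 30 nM to 100 μM (up to 0.3% DMSO) to Kv1.3-expressing CHO-K1 cells, P/4 leak subtraction. Pulses were +40 mV, 100 ms, from −90 mV holding, at 0.1 Hz on Patchliner.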

hERG channel = target: T2, hERG channel (Homo sapiens, UniProt Q12809); assay: hERG electrophysiology, automated whole-cell patch clamp (Patchliner); assay type: cell-based; conditions: hERG channel, whole-cell patch clamp
T2 construct: expressed in transfected cells
Procedure, shortened: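 Currents were recorded at 0.3 Hz from −80 mV, stepping to +20 mV then −50 mV (300 ms each), in stably transfected CHO-K1 cells. Concentrations (30 nM–100 μM, up to 0.3% DMSO) were added sequentially without washout. IC50 came from Hill fits of control-normalized AUC/peak of each train's final pulse.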

T1 sequence (P22001 whole entry): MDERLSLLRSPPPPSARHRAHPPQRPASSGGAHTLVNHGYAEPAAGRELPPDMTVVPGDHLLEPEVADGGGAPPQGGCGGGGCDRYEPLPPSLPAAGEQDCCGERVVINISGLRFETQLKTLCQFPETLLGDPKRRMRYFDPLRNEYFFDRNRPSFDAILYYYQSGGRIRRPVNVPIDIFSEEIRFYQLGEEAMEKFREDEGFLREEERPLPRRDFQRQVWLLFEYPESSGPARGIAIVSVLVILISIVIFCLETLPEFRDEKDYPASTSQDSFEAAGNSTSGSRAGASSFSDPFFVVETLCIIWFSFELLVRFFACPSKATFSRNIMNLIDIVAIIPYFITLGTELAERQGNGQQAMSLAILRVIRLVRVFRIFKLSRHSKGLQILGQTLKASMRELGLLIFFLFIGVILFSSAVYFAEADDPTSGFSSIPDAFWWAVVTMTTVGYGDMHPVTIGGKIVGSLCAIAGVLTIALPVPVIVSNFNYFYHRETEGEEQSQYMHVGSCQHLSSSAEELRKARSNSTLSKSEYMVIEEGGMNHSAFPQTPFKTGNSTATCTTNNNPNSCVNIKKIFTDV
T2 sequence (Q12809 whole entry): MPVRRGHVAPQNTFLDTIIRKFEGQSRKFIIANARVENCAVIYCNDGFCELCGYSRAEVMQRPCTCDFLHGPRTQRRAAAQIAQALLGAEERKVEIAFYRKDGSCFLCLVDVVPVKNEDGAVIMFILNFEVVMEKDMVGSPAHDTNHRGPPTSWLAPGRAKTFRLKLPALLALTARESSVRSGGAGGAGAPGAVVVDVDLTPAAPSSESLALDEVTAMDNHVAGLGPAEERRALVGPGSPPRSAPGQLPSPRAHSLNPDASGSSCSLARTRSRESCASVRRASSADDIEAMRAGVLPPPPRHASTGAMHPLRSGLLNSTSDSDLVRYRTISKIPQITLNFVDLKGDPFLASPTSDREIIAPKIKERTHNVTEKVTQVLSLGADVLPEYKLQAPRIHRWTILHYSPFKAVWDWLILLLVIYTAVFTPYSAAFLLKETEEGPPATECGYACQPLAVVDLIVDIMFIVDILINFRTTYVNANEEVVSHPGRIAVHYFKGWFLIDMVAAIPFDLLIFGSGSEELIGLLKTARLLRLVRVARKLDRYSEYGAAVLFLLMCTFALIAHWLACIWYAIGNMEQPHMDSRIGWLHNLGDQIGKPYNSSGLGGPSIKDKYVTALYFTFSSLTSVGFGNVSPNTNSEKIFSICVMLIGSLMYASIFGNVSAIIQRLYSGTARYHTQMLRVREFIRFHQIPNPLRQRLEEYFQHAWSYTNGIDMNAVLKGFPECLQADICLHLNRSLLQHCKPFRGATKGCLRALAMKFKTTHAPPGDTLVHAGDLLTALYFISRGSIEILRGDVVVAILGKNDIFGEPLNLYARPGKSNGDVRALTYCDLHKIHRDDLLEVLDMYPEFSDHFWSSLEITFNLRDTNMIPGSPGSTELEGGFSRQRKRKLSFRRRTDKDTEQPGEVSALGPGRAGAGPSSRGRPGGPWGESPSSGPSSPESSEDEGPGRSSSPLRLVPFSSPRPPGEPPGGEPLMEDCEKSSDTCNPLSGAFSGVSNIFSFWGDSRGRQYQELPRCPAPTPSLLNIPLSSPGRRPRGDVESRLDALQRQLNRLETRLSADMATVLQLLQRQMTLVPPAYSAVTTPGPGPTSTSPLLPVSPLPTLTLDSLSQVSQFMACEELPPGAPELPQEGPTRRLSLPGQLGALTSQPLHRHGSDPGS

SMILES	IC50 (Kv1.3 potassium channel) [µM]	IC50 (hERG channel) [µM]
C[C@@H]1CC(=O)N2C[C@@H](c3c(O)ccc(Cl)c3Cl)C[C@H]2CN1C(=O)CO [Compound 93, (3R,8R,9aS)-8-(2,3-dichloro-6-hydroxyphenyl)-2-(2-hydroxyacetyl)-3-methyl-hexahydro-1H-pyrrolo[1,2-a][1,4]diazepin-5-one]	< 1	< 30
C[C@H]1CC(=O)N2C[C@@H](c3c(O)ccc(Cl)c3Cl)C[C@H]2CN1C(=O)CO [Compound 94, (3S,8R,9aS)-8-(2,3-dichloro-6-hydroxyphenyl)-2-(2-hydroxyacetyl)-3-methyl-hexahydro-1H-pyrrolo[1,2-a][1,4]diazepin-5-one]	< 1	> 30
NC(=O)N1CC(=O)N2CC[C@@H](c3c(O)ccc(Cl)c3Cl)C[C@H]2C1 [Compound 96, (8R,9aS)-8-(2,3-dichloro-6-hydroxyphenyl)-4-oxo-hexahydro-1H-pyrido[1,2-a]pyrazine-2-carboxamide]	< 1	> 30
NC(=O)N1CCC(=O)N2C[C@@H](c3c(O)ccc(Cl)c3Cl)C[C@H]2C1 [Compound 97, (8R,9aS)-8-(2,3-dichloro-6-hydroxyphenyl)-5-oxo-hexahydro-1H-pyrrolo [1,2-a][1,4]diazepine-2-carboxamide]	< 1	> 30
CC1(O)CN(C(=O)N2CC(=O)N3C[C@@H](c4c(O)ccc(Cl)c4Cl)C[C@H]3C2)C1 [Compound 100, (7R,8aS)-7-(2,3-dichloro-6-hydroxyphenyl)-2-(3-hydroxy-3-methylazetidine-1-carbonyl)-hexahydropyrro[1,2-a]pyrazine-4-one]	< 1	> 30
O=C(N1CC[C@@H](O)C1)N1CC(=O)N2C[C@@H](c3c(O)ccc(Cl)c3Cl)C[C@H]2C1 [Compound 101, (7R,8aS)-7-(2,3-dichloro-6-hydroxyphenyl)-2-[(3R)-3-hydroxypyrrolidine-1-carbonyl]-hexahydropyrro[1,2-a]pyrazine-4-one]	< 1	> 30
O=C(N1CC[C@H](O)C1)N1CC(=O)N2C[C@@H](c3c(O)ccc(Cl)c3Cl)C[C@H]2C1 [Compound 102, (7R,8aS)-7-(2,3-dichloro-6-hydroxyphenyl)-2-[(3S)-3-hydroxypyrrolidine-1-carbonyl]-hexahydropyrro[1,2-a]pyrazine-4-one]	< 1	> 30
O=C(N1CC(CO)C1)N1CC(=O)N2C[C@@H](c3c(O)ccc(Cl)c3Cl)C[C@H]2C1 [Compound 103, (7R,8aS)-7-(2,3-dichloro-6-hydroxypheny1)-2-[3-(hydroxymethyl)azetidine-1-carbonyl]-hexahydropyrro[1,2-a]pyrazine-4-one]	< 1	> 30
O=C(NCCO)N1CC(=O)N2C[C@@H](c3c(O)ccc(Cl)c3Cl)C[C@H]2C1 [Compound 104, (7R,8aS)-7-(2,3-dichloro-6-hydroxyphenyl)-N-(2-hydroxyethyl)-4-oxo-hexahydropyrro[1,2-a]pyrazine-2-carboxamide]	< 1	> 30
NC(=O)CN1CC(=O)N2C[C@@H](c3c(O)ccc(Cl)c3Cl)C[C@H]2C1 [Compound 110, 2-[(7R,8aS)-7-(2,3-dichloro-6-hydroxyphenyl)-4-oxo-hexahydropyrrolo [1,2-a]pyrazin-2-yl]acetamide]	< 1	> 30
CNC(=O)CN1CC(=O)N2C[C@@H](c3c(O)ccc(Cl)c3Cl)C[C@H]2C1 [Compound 111, 2-[(7R,8aS)-7-(2,3-dichloro-6-hydroxyphenyl)-4-oxo-hexahydropyrrolo [1,2-a]pyrazin-2-yl]-N-methylacetamide]	< 1	> 30
O=C1CN(CC(O)CO)C[C@@H]2C[C@H](c3c(O)ccc(Cl)c3Cl)CN12 (stereo partly drawn) [Compound 112, (7R,8aS)-7-(2,3-dichloro-6-hydroxyphenyl)-2-(2,3-dihydroxypropyl)-hexahydropyrrolo [l,2-a]pyrazin-4-one]	< 1	> 30
O=C1CN(CCN2CCNCC2)C[C@@H]2C[C@H](c3c(O)ccc(Cl)c3Cl)CN12 [Compound 120, (7R,8aS)-7-(2,3-dichloro-6-hydroxyphenyl)-2-[2-(piperazin-1-yl)ethyl]-hexahydropyrrolo [1,2-a]pyrazin-4-one]	< 1	> 30
O=C1CN(CCN2CCOCC2)C[C@@H]2C[C@H](c3c(O)ccc(Cl)c3Cl)CN12 [Compound 121, (7R,8aS)-7-(2,3-dichloro-6-hydroxyphenyl)-2-[2-(morpholin-4-yl)ethyl]-hexahydropyrrolo [1,2-a]pyrazin-4-one]	< 1	< 30
O=C1CN(C(CO)CO)C[C@@H]2C[C@H](c3c(O)ccc(Cl)c3Cl)CCN12 [Compound 122, (8R,9aS)-8-(2,3-dichloro-6-hydroxyphenyl)-2-(1,3-dihydroxypropan-2-yl)-hexahydro-1H-pyrido[1,2-a] pyrazin-4-one]	< 1	> 30
O=C1CN(C2CC(O)C2)C[C@@H]2C[C@H](c3c(O)ccc(Cl)c3Cl)CN12 (stereo partly drawn) [Compound 123, (7R,8aS)-7-(2,3-dichloro-6-hydroxyphenyl)-2-(3-hydroxycyclobutyl)-hexahydropyrrolo[1,2-a]pyrazin-4-one]	< 1	> 30
O=C1CN(C(CO)CO)C[C@@H]2C[C@H](c3c(O)ccc(Cl)c3Cl)CN12 [Compound 124, (7R,8aS)-7-(2,3-dichloro-6-hydroxyphenyl)-2-(1,3-dihydroxypropan-2-yl)-hexahydropyrrolo [1,2-a]pyrazin-4-one]	< 1	> 30
CC(CO)N1CC(=O)N2C[C@@H](c3c(O)ccc(Cl)c3Cl)C[C@H]2C1 (stereo partly drawn) [Compound 127, (7R,8aS)-7-(2,3-dichloro-6-hydroxyphenyl)-2-(1-hydroxypropan-2-yl)-hexahydropyrrolo [1,2-a]pyrazin-4-one]	< 1	> 30
O=C1CN(CC2CNC2)C[C@@H]2C[C@H](c3c(O)ccc(Cl)c3Cl)CN12 [Compound 128, (7R,8aS)-2-(azetidin-3-ylmethyl)-7-(2,3-dichloro-6-hydroxyphenyl)-hexahydropyrrolo [1,2-a]pyrazin-4-one]	< 1	> 30
O=C1CN(C2CNC2)C[C@@H]2C[C@H](c3c(O)ccc(Cl)c3Cl)CN12 [Compound 129, (7R,8aS)-2-(azetidin-3-yl)-7-(2,3-dichloro-6-hydroxyphenyl)-hexahydropyrrolo [1,2-a]pyrazin-4-one]	< 1	> 30
CN1CC(N2CC(=O)N3C[C@@H](c4c(O)ccc(Cl)c4Cl)C[C@H]3C2)C1 [Compound 132, (7R,8aS)-7-(2,3-dichloro-6-hydroxyphenyl)-2-(1-methylazetidin-3-yl)-hexahydropyrrolo [1,2-a]pyrazin-4-one]	< 1	< 30
O=C(CO)N1CC(N2CC(=O)N3C[C@@H](c4c(O)ccc(Cl)c4Cl)C[C@H]3C2)C1 [Compound 133, (7R,8aS)-7-(2,3-dichloro-6-hydroxyphenyl)-2-[1-(2-hydroxyacetyl)azetidin-3-yl]-hexahydropyrrolo [1,2-a]pyrazin-4-one]	< 1	> 30
O=C1CN(C2CN(CCO)C2)C[C@@H]2C[C@H](c3c(O)ccc(Cl)c3Cl)CN12 [Compound 134, (7R,8aS)-7-(2,3-dichloro-6-hydroxyphenyl)-2-[1-(2-hydroxyethyl)azetidin-3-yl]-hexahydropyrrolo [1,2-a]pyrazin-4-one]	< 1	> 30
O=C1CN(C2CCNCC2)C[C@@H]2C[C@H](c3c(O)ccc(Cl)c3Cl)CN12 [Compound 141, (7R,8aS)-7-(2,3-dichloro-6-hydroxyphenyl)-2-(piperidin-4-yl)-hexahydropyrrolo [1,2-a]pyrazin-4-one]	< 1	> 30
O=C1CN([C@H]2CCNC2)C[C@@H]2C[C@H](c3c(O)ccc(Cl)c3Cl)CN12 [Compound 142, (7R,8aS)-7-(2,3-dichloro-6-hydroxyphenyl)-2-[(3S)-pyrrolidin-3-yl]-hexahydropyrrolo [1,2-a]pyrazin-4-one]	< 1	> 30
O=C1CN([C@@H]2CCNC2)C[C@@H]2C[C@H](c3c(O)ccc(Cl)c3Cl)CN12 [Compound 143, (7R,8aS)-7-(2,3-dichloro-6-hydroxyphenyl)-2-[(3R)-pyrrolidin-3-yl]-hexahydropyrrolo [1,2-a]pyrazin-4-one]	< 1	> 30
O=C1CN(C[C@@H]2COCCN2)C[C@@H]2C[C@H](c3c(O)ccc(Cl)c3Cl)CN12 [Compound 144, (7R,8aS)-7-(2,3-dichloro-6-hydroxyphenyl)-2-[(3R)-morpholin-3-ylmethyl]-hexahydropyrrolo [1,2-a]pyrazin-4-one]	< 1	> 30
O=C1CN(C[C@H]2COCCN2)C[C@@H]2C[C@H](c3c(O)ccc(Cl)c3Cl)CN12 [Compound 145, (7R,8aS)-7-(2,3-dichloro-6-hydroxyphenyl)-2-[(3S)-morpholin-3-ylmethyl]-hexahydropyrrolo [1,2-a]pyrazin-4-one]	< 1	< 30
O=C1CN(C[C@@H]2CNCCO2)C[C@@H]2C[C@H](c3c(O)ccc(Cl)c3Cl)CN12 [Compound 146, (7R,8aS)-7-(2,3-dichloro-6-hydroxyphenyl)-2-[(2S)-morpholin-2-ylmethyl]-hexahydropyrrolo [1,2-a]pyrazin-4-one]	< 1	> 30
